{"source": "ChEMBL document CHEMBL1268920", "about": "“Design and synthesis of aminohydantoins as potent and selective human β-secretase (BACE1) inhibitors with enhanced brain permeability” (Bioorg Med Chem Lett, 2010)", "key": {"[1]": {"test_system": "Brain", "assay": "Permeability across brain in Tg2576 mouse at 100 mg/kg, po", "format": "ADME, organism-based", "set-up": "dose 100 mg/kg, route oral", "details": "in vivo"}, "[2]": {"assay": "Ratio of AUC in brain to plasma in Tg2576 mouse", "format": "ADME", "details": "brain and plasma, read-out: Ratio AUC"}}, "data": [{"smiles": "COc1ccc([C@]2(c3cccc(-c4cccnc4)c3)N=C(N)N(C)C2=O)cc1C", "values": [{"measurement": "permeability", "setting": "[1]", "value": 15, "unit": "%"}]}, {"smiles": "COc1ccc([C@]2(c3cccc(-c4cccnc4F)c3)N=C(N)N(C)C2=O)cc1C", "values": [{"measurement": "permeability", "setting": "[1]", "value": 10, "unit": "%"}]}, {"smiles": "COc1ccc([C@]2(c3cccc(-c4cccnc4OC)c3)N=C(N)N(C)C2=O)cc1C", "values": [{"measurement": "permeability", "setting": "[1]", "value": 7, "unit": "%"}]}, {"smiles": "COc1ccc([C@]2(c3cccc(-c4cncnc4)c3)N=C(N)N(C)C2=O)cc1C", "values": [{"measurement": "permeability", "setting": "[1]", "value": 5, "unit": "%"}]}, {"smiles": "CN1C(=O)[C@@](c2ccc(OC(F)(F)F)cc2)(c2cccc(-c3cccnc3)c2)N=C1N", "values": [{"measurement": "permeability", "setting": "[1]", "value": 10, "unit": "%"}]}, {"smiles": "CN1C(=O)[C@@](c2ccc(OC(F)(F)F)cc2)(c2cccc(-c3cccnc3F)c2)N=C1N", "values": [{"measurement": "permeability", "setting": "[1]", "value": 10, "unit": "%"}]}, {"smiles": "CN1C(=O)[C@@](c2ccc(OC(F)F)cc2)(c2cccc(-c3cc(F)cnc3F)c2)N=C1N", "values": [{"measurement": "permeability", "setting": "[1]", "value": 9, "unit": "%"}]}, {"smiles": "CN1C(=O)[C@@](c2ccc(OC(F)F)cc2)(c2cccc(-c3cccnc3F)c2)N=C1N", "values": [{"measurement": "permeability", "setting": "[1]", "value": 9, "unit": "%"}]}, {"smiles": "CN1C(=O)[C@](c2ccccc2)(c2ccc(OC(F)F)cc2)N=C1N", "values": [{"measurement": "permeability", "setting": "[1]", "value": 90, "unit": "%"}]}, {"smiles": "CN1C(=O)C(c2ccccc2)(c2ccccc2)N=C1N", "values": [{"measurement": "permeability", "setting": "[1]", "value": 81, "unit": "%"}, {"measurement": "Kp", "setting": "[2]", "value": 0.8}]}, {"smiles": "CN1C(=O)[C@@](c2ccc(OC(F)(F)F)cc2)(c2ccc(F)c(-c3cncnc3)c2)N=C1N", "values": [{"measurement": "Kp", "setting": "[2]", "value": 0.1}]}, {"smiles": "NC1=NC(c2ccccc2)(c2ccccc2)C2=NCCCN12", "values": [{"measurement": "Kp", "setting": "[2]", "value": 1}]}, {"smiles": "COc1ccc([C@]2(c3ccc(F)c(-c4cccnc4F)c3)N=C(N)N(C)C2=O)cc1C", "values": [{"measurement": "Kp", "setting": "[2]", "value": 0.1}]}]}
